Laboratory results as given in patent US20240182460A1, “ALLOSTERIC CHROMENONE INHIBITORS OF PHOSPHOINOSITIDE 3-KINASE (PI3K) FOR THE TREATMENT OF DISEASE” (PETRA PHARMA CORPORATION, priority 2022, published 2024).

Experiments:
PI3Kα E545K [1] = target: T1, PI3Kα E545K (Homo sapiens, UniProt P42336, E545K); assay: PI3Kα E545K mutant in vitro cell based assay, MDA-MB-361 cells; set-up: MDA-MB-361 (ATCC-HTB-27) cell line (PI3Kα E545K); host or cells: MDA-MB-361; conditions: MDA-MB-361 cell line, 0% FBS, no insulin, 3 hours treatment
T1 sequence (P42336 whole entry E545K): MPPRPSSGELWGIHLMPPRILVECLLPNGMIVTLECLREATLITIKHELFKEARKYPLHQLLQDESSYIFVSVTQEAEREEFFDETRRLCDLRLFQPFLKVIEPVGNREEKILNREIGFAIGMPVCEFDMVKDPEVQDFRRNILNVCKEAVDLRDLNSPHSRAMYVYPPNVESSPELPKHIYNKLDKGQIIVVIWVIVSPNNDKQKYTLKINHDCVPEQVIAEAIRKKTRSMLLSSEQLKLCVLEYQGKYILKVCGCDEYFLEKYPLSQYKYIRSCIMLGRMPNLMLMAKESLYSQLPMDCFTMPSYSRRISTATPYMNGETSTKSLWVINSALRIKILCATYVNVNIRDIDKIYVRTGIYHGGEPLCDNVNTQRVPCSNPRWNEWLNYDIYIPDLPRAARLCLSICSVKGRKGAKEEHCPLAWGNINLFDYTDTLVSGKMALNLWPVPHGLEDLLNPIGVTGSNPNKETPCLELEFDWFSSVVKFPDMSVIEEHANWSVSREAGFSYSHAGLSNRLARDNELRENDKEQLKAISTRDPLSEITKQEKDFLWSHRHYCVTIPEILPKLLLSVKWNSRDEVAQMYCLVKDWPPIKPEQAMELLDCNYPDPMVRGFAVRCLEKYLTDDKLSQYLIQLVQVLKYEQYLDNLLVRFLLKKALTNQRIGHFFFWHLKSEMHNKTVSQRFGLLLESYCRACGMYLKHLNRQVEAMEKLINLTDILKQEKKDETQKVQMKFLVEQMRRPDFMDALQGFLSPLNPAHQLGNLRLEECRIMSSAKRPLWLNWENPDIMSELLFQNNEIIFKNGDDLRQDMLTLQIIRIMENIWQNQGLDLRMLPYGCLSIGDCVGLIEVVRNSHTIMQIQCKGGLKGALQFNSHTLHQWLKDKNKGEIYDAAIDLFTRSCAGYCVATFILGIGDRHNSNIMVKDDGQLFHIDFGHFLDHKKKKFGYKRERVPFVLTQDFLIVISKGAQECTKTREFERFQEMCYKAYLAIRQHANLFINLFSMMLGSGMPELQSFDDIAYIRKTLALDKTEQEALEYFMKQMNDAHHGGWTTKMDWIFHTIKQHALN
T1 sequence (P27986 whole entry partner): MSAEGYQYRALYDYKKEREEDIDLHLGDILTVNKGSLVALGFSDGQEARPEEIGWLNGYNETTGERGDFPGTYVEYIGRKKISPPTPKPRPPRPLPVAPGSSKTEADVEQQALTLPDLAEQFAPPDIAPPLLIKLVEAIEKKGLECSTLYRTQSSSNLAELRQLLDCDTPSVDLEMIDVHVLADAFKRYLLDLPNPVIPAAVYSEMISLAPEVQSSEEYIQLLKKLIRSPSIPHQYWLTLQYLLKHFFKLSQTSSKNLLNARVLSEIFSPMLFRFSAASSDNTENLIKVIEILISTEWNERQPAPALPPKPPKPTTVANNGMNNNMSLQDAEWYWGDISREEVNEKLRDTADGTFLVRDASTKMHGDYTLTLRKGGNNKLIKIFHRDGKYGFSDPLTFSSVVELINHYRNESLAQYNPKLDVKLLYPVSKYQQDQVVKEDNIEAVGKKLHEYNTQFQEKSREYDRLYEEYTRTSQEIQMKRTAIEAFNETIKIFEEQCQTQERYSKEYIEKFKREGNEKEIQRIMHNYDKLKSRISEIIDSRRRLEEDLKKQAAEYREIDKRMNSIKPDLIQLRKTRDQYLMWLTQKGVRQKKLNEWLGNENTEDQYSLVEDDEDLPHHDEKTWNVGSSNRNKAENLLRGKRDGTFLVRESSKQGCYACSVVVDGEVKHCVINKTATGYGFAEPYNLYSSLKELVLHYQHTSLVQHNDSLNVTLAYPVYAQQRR
Procedure, shortened: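 Compound exposure lasted 3 hours, in duplicate 10-point 1:3 dilutions at 0.3% DMSO final, on overnight-attached MDA-MB-361 cells carrying PI3Kα E545K in insulin-free, 0% FBS MEM. Lysates read by SureFire AlphaLISA. Relative IC50 from 4-parameter logistic fit versus DMSO and 1 μM GDC-0032 controls.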

PI3Kα E545K [2] = target: T1, PI3Kα E545K; assay: PI3Kα E545K mutant in vitro cell based assay, MCF-7 cells; conditions: MCF-7 cell line, 0% FBS, 3 hours treatment
Procedure, shortened: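 MCF-7 cells (PI3Kα E545K) in serum-free MEM with 1 μg/mL insulin were treated 3 h with 10-point 1:3 dilutions in 0.3% DMSO. Lysates were read by SureFire AlphaLisa. IC50 was fitted by 4-parameter logistic to % inhibition relative to DMSO (max) and 1 μM GDC-0032 (min), duplicates averaged.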

Row | IC50 (PI3Kα E545K [1]) [nM] | Compound | IC50 (PI3Kα E545K [2]) [nM]
1 | < 500 | CC(=O)Nc1ccc(-c2oc3c([C@@H](C)Oc4ccc(Cl)nc4C(N)=O)cc(C)cc3c(=O)c2C)cc1 [Example 58C, 3-[(1R)-1-[2-(4-Acetamidophenyl)-3,6-dimethyl-4-oxo-chromen-8-yl]ethoxy]-6-chloro-pyridine-2-carboxamide] | 
2 | < 500 | Cc1cc([C@@H](C)Oc2ccc(Cl)nc2-c2noc(=O)[nH]2)c2oc(-c3ccc4c(c3)OC(F)(F)O4)c(C)c(=O)c2c1 [Example 46A, 3-[6-Chloro-3-[(1R)-1-[2-(2,2-difluoro-1,3-benzodioxol-5-yl)-3,6-dimethyl-4-oxo-chromen-8-yl]ethoxy]-2-pyridyl]-4H-1,2,4-oxadiazol-5-one] | < 500
3 | < 500 | Cc1cc([C@@H](C)Oc2ccc(Br)nc2C(N)=O)c2oc(-c3ccc4nn(C)cc4c3)c(C)c(=O)c2c1 [Example 81C, 6-Bromo-3-[(1R)-1-[3,6-dimethyl-2-(2-methylindazol-5-yl)-4-oxo-chromen-8-yl]ethoxy]pyridine-2-carboxamide] | 
4 | < 500 | Cc1cc([C@@H](C)Oc2ccc(Cl)nc2C(N)=O)c2oc(-c3cc(F)c4nn(C)cc4c3)c(C)c(=O)c2c1 [Example 17B, 6-Chloro-3-[(1R)-1-[2-(7-fluoro-2-methyl-indazol-5-yl)-3,6-dimethyl-4-oxo-chromen-8-yl]ethoxy]pyridine-2-carboxamide] | 

Row | Compound | IC50 (PI3Kα E545K [1]) [nM] | IC50 (PI3Kα E545K [2]) [nM]
5 | Cc1cc([C@@H](C)Oc2ccc(Cl)nc2NS(C)(=O)=O)c2oc(-c3cnn(C)c3)c(C)c(=O)c2c1 [Example 149A, N-[6-Chloro-3-[(1R)-1-[3,6-dimethyl-2-(1-methylpyrazol-4-yl)-4-oxo-chromen-8-yl]ethoxy]-2-pyridyl]methanesulfonamide] | < 500 | < 500
